{
  "source": "ChEMBL document CHEMBL5465560",
  "about": "“Selectivity Literature for EUbOPEN Chemogenomic Library” (2024)",
  "key": {"[1]": {"target": "Serine/threonine-protein kinase NIM1 (Homo sapiens, UniProt Q8IY84)", "sequence (Q8IY84 whole entry)": "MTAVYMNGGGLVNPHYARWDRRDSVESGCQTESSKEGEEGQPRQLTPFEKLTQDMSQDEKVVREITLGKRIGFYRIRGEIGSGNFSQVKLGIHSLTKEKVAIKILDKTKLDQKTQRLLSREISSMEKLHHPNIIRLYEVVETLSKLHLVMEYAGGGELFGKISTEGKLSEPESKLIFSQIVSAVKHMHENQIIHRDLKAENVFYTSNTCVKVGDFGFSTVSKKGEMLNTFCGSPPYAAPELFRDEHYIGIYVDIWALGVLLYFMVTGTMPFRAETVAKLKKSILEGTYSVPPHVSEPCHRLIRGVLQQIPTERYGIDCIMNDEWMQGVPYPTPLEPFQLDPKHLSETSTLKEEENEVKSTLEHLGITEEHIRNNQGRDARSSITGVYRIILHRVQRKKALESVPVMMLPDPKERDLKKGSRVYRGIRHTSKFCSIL", "assay": "Selectivity interaction (KinomeScan (DiscoverX)) EUB0000666a NIM1K", "conditions": "at 10 µM"}, "[2]": {"target": "Tyrosine-protein kinase Lck (Homo sapiens, UniProt P06239)", "sequence (P06239 2-509 limits assumed)": "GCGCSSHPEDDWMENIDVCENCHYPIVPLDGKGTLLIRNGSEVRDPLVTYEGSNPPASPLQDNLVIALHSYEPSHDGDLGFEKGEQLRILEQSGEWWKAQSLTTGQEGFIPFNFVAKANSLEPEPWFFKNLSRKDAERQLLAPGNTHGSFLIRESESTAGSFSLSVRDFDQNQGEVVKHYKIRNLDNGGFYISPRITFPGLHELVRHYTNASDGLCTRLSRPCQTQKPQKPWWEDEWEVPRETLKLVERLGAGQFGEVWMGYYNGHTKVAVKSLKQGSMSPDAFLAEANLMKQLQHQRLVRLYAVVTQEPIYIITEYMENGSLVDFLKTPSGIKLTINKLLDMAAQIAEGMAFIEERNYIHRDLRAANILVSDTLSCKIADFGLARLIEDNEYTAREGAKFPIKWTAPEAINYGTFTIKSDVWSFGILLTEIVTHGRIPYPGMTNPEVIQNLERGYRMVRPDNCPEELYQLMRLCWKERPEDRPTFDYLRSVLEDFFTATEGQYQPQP", "assay": "Selectivity interaction (KinomeScan (DiscoverX)) EUB0000666a LCK", "conditions": "at 10 µM"}, "[3]": {"target": "4-aminobutyrate aminotransferase, mitochondrial (Homo sapiens, UniProt P80404)", "sequence (P80404 whole entry)": "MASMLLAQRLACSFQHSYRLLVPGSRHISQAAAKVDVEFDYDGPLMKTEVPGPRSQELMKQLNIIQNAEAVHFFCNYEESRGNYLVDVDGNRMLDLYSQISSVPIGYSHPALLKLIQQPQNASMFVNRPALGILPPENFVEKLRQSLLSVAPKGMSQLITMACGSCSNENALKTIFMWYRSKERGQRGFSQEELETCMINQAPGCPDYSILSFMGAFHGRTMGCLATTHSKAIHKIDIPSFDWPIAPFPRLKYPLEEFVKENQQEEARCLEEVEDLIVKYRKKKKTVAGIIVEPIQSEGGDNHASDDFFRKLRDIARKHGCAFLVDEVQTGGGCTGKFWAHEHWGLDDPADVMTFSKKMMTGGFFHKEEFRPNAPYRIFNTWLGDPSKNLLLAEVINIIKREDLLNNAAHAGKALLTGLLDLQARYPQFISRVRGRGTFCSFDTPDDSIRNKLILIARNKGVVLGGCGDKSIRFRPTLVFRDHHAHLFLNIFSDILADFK", "assay": "Selectivity interaction (GPCR panel (PDSP screen)) EUB0001079a ABAT", "conditions": "at 10 µM"}, "[4]": {"target": "T1, Ephrin type-A receptor 3 (Homo sapiens) (UniProt P29320)", "T1 sequence (whole entry)": "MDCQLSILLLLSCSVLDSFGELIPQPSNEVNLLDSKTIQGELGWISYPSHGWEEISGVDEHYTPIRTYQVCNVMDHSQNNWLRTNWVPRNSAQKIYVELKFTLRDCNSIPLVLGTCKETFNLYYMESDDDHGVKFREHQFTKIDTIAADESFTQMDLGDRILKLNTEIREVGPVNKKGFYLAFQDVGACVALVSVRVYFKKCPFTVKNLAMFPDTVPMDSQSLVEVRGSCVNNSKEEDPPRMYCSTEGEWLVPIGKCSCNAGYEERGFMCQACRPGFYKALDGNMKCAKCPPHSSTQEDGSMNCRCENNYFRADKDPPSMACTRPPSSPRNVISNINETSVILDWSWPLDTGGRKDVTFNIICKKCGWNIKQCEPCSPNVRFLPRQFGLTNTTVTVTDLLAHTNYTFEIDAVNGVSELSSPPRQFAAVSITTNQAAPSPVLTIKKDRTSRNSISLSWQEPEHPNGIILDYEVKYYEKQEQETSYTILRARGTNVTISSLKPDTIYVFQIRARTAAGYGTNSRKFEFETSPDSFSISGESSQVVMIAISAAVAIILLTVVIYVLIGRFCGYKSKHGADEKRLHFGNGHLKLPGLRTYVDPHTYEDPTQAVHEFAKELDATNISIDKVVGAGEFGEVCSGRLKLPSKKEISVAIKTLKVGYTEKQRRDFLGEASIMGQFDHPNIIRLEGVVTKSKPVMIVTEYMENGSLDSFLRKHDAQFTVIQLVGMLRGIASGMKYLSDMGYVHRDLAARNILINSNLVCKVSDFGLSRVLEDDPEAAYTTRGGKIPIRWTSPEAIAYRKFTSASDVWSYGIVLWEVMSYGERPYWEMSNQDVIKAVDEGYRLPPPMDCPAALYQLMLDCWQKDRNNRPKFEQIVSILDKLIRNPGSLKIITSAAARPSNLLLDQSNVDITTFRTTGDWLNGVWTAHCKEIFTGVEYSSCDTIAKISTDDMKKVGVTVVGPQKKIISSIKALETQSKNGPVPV", "conditions": "at 10 µM"}, "[5]": {"target": "Serine/threonine-protein kinase PAK 6 (Homo sapiens) (UniProt Q9NQU5)", "sequence (Q9NQU5 whole entry, looked up)": "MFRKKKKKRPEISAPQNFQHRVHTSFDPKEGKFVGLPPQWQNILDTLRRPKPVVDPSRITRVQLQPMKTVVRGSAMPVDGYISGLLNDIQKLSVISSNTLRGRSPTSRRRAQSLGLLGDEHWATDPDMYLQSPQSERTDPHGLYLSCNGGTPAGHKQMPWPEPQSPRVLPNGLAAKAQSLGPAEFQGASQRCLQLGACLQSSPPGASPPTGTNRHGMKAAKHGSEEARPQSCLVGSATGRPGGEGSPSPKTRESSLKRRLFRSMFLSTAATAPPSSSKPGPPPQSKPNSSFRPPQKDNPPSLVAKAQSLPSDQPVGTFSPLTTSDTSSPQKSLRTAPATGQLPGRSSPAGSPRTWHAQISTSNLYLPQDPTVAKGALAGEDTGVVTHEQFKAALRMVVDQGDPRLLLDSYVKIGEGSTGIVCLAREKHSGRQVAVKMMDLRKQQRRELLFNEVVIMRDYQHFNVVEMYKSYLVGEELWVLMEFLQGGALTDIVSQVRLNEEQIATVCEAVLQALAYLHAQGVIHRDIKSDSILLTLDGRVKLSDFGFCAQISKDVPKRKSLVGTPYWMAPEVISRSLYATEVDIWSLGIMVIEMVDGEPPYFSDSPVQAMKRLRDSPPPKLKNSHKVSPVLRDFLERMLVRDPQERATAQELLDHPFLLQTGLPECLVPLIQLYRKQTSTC", "assay": "Selectivity interaction (Kinase panel (Invitrogen)) EUB0000639a PAK6", "conditions": "at 200 nM"}, "[6]": {"target": "Eukaryotic translation initiation factor 2-alpha kinase 1 (Homo sapiens) (UniProt Q9BQI3)", "sequence (Q9BQI3 whole entry)": "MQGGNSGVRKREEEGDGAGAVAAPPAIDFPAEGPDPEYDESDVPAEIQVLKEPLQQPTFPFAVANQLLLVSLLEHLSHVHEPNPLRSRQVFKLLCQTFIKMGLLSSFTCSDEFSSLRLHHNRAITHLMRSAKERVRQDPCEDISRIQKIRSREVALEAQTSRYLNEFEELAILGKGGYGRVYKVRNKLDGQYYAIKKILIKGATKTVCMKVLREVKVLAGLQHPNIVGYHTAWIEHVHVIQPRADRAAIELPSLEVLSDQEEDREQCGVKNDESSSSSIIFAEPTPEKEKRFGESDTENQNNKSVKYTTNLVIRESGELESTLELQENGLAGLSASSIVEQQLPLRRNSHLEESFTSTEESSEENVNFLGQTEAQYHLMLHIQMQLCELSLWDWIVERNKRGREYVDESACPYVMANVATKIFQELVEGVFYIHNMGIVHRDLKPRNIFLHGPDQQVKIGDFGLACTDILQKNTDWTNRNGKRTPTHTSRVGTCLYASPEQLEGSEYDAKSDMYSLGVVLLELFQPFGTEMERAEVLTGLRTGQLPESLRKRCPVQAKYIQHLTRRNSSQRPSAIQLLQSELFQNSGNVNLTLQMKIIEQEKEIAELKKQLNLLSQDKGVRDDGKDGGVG", "assay": "Selectivity interaction (KinomeScan (DiscoverX)) EUB0000092b EIF2AK1", "conditions": "at 10 µM"}, "Ephrin type-A receptor 4": {"target": "Ephrin type-A receptor 4 (Homo sapiens, UniProt P54764)", "sequence (P54764 whole entry)": "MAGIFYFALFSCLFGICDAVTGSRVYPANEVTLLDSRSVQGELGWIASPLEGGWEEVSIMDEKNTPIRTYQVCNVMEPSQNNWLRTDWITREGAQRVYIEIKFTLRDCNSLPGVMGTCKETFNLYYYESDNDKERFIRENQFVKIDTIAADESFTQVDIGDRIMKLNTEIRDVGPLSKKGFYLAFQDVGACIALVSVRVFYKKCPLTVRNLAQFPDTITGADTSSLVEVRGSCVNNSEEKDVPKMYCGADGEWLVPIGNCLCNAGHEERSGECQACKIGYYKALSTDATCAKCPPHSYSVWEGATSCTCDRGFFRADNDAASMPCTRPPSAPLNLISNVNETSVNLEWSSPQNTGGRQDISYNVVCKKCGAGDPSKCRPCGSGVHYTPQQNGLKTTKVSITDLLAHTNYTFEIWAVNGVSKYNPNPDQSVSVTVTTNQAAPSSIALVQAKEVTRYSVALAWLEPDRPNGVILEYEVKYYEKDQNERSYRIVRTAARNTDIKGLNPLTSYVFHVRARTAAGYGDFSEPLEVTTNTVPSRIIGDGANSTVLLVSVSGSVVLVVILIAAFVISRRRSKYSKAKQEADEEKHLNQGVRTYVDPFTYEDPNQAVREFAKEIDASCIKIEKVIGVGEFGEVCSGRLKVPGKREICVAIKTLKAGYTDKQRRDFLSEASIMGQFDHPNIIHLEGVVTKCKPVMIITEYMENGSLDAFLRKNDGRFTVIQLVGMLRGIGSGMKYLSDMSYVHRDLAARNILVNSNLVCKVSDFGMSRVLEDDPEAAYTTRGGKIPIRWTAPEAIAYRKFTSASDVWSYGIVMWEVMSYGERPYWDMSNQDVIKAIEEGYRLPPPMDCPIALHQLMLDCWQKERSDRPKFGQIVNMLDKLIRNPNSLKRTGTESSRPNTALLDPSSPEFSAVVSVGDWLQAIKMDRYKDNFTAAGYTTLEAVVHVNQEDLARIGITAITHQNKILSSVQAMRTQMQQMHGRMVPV", "assay": "Selectivity interaction (KinomeScan (DiscoverX)) EUB0000045b EPHA4"}, "[7]": {"target": "T2, Mitogen-activated protein kinase kinase kinase 7 (Homo sapiens) (UniProt O43318)", "T2 sequence (whole entry)": "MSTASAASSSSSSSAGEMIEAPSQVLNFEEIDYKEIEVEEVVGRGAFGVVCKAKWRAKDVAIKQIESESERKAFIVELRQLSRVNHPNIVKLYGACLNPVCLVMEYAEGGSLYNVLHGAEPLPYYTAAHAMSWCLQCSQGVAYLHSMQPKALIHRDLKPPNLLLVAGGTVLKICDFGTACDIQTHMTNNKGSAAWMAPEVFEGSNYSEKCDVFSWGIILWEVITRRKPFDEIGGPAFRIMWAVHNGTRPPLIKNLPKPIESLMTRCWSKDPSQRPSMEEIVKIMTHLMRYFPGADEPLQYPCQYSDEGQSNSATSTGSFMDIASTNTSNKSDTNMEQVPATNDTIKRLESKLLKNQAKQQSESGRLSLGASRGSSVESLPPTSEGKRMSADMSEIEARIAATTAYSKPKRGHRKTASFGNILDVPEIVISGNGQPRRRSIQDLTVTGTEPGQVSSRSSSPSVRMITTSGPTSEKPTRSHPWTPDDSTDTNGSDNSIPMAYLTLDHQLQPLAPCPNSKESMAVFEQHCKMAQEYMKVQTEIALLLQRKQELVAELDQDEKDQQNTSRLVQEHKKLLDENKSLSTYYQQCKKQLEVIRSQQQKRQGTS", "assay": "Selectivity interaction (KinomeScan (DiscoverX)) EUB0000618a MAP3K7", "conditions": "at 10 µM"}, "[8]": {"target": "Serine/threonine-protein kinase 25 (Homo sapiens) (UniProt O00506)", "conditions": "at 10 µM"}, "[9]": {"target": "5'-AMP-activated protein kinase catalytic subunit alpha-2 (Homo sapiens) (UniProt P54646)", "sequence (P54646 whole entry, looked up)": "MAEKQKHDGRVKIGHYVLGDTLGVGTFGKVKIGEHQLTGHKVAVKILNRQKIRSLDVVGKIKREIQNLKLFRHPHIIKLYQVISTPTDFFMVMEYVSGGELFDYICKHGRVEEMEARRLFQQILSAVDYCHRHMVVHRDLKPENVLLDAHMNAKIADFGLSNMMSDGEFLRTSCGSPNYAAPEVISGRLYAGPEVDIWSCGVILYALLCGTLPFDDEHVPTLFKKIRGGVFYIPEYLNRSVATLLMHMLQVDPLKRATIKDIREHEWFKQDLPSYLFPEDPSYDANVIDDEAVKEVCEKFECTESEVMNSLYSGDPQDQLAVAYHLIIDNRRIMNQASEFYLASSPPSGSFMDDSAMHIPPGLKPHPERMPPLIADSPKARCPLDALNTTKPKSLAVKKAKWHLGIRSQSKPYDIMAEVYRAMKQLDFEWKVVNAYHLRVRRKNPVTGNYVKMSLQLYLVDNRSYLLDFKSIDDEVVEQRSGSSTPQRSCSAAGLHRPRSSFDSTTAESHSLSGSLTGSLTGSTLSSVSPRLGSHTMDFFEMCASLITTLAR", "assay": "Selectivity interaction (KinomeScan (DiscoverX)) EUB0001619a PRKAA2", "conditions": "at 1 µM"}, "[10]": {"target": "T3, Tyrosine-protein kinase ZAP-70 (Homo sapiens) (UniProt P43403)", "T3 sequence (whole entry)": "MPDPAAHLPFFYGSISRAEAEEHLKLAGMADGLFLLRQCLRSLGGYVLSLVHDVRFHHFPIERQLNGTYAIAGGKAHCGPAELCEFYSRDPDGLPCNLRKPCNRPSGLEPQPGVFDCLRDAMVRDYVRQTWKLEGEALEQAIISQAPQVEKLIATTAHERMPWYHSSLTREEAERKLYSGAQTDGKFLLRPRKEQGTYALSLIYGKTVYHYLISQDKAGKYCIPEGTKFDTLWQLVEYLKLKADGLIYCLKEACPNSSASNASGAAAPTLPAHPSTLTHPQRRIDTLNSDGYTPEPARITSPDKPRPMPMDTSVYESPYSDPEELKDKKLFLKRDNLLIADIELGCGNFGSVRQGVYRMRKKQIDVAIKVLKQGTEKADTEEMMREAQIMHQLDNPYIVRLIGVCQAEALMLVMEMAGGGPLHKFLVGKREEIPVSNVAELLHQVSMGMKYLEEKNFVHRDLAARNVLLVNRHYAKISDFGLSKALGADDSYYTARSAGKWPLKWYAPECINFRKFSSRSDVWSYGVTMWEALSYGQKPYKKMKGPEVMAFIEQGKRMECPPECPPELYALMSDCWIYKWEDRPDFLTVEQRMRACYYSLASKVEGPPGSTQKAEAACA", "assay": "Selectivity interaction (ActivX KiNativ screen (ex vivo kinase selectivity in human PBMCs)) EUB0001619a ZAP70", "type": "cell-based", "conditions": "PBMC, at 1 µM"}, "[11]": {"target": "Ribosomal protein S6 kinase alpha-6 (Homo sapiens, UniProt Q9UK32)", "sequence (Q9UK32 whole entry)": "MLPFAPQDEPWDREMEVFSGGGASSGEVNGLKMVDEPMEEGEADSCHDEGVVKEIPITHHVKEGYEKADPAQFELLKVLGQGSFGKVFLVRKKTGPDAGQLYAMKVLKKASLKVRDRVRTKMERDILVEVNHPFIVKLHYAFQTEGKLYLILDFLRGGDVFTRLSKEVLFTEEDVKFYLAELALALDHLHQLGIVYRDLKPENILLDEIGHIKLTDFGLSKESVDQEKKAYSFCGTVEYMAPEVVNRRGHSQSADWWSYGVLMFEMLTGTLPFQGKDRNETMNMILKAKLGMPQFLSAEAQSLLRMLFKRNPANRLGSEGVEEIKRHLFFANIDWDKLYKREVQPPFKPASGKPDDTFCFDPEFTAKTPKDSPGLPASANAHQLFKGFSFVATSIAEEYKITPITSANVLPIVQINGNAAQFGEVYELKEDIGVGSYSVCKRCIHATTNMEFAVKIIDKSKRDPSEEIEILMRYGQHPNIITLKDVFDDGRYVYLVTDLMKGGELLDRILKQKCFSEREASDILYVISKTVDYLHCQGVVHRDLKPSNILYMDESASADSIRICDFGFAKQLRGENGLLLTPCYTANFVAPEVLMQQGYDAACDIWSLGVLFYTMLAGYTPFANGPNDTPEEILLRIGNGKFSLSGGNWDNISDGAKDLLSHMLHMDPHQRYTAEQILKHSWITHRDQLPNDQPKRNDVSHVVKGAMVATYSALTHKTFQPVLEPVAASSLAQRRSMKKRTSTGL", "assay": "Selectivity interaction (KinomeScan (DiscoverX)) EUB0000655a RPS6KA6", "conditions": "at 10 µM"}},
  "data": [
    {"smiles": "O=C(NOC[C@H](O)CO)c1ccc(F)c(F)c1Nc1ccc(I)cc1F", "values": [
      {"measurement": "% of control", "setting": "[1]", "result": 100, "unit": "%"},
      {"measurement": "% of control", "setting": "[2]", "result": 88, "unit": "%"}
    ]},
    {"smiles": "Nc1cnc(N2CCc3cc(S(=O)(=O)Nc4c(F)cc(Cl)cc4F)cc(N4CCCC4=O)c32)nc1", "note": "[TP-020n]", "values": [
      {"measurement": "% of inhibition", "setting": "[3]", "result": -2.65, "unit": "%"}
    ]},
    {"smiles": "CCN(CC)CCCCNc1ncc2cc(-c3cc(OC)cc(OC)c3)c(NC(=O)NC(C)(C)C)nc2n1", "values": [
      {"measurement": "% of control", "setting": "[4]", "result": 100, "unit": "%"}
    ]},
    {"smiles": "CC[C@@H]1[C@H](F)C(=O)N[C@@H]1COc1nccc2cc(C(N)=O)c(OC)cc12", "note": "[ZIMLOVISERTIB]", "values": [
      {"measurement": "% of inhibition", "setting": "[5]", "result": 5.8, "unit": "%"}
    ]},
    {"smiles": "CCC(=O)N1CCN(c2ccc(-n3c(=O)ccc4cnc5ccc(-c6cnc7ccccc7c6)cc5c43)cc2C(F)(F)F)CC1", "values": [
      {"measurement": "% of control", "setting": "[6]", "result": 57, "unit": "%"}
    ]},
    {"smiles": "C=CC(=O)Nc1cc(-n2c(=O)ccc3cnc4ccc(-c5ccc(NS(C)(=O)=O)cc5)cc4c32)ccc1C", "values": [
      {"measurement": "% of control", "setting": "Ephrin type-A receptor 4; at 1 µM", "result": 89, "unit": "%"},
      {"measurement": "% of control", "setting": "Ephrin type-A receptor 4; at 10 µM", "result": 100, "unit": "%"}
    ]},
    {"smiles": "O[C@H]1CC[C@H](Nc2ncc3nc(Nc4c(F)cc(F)cc4F)n([C@H]4CCOC4)c3n2)CC1", "values": [
      {"measurement": "% of control", "setting": "[7]", "result": 99, "unit": "%"}
    ]},
    {"smiles": "Cc1cc([C@@H](C)Nc2ccccc2C(=O)O)c2nc(N3CCOCC3)cc(=O)n2c1", "note": "[AZD-6482]", "values": [
      {"measurement": "% of control", "setting": "[8]", "result": 76, "unit": "%"}
    ]},
    {"smiles": "N#Cc1cccc(-c2c[nH]c3ncnc(N4CCOCC4)c23)c1", "values": [
      {"measurement": "% of control", "setting": "[9]", "result": 22, "unit": "%"},
      {"measurement": "% of inhibition", "setting": "[10]", "result": -33, "unit": "%"}
    ]},
    {"smiles": "CN(C)CCOc1ccc(-c2nc(-c3ccncc3)c(-c3ccc4c(c3)CC/C4=N\\O)[nH]2)cc1", "values": [
      {"measurement": "% of control", "setting": "[11]", "result": 82, "unit": "%"}
    ]}
  ]
}
